Data as given in ChEMBL document CHEMBL4622979, “Non-rigid Diarylmethyl Analogs of Baloxavir as Cap-Dependent Endonuclease Inhibitors of Influenza Viruses” (J Med Chem, 2020).
Activity calls are given as the source filed them. The calls are words filed in the database; no cut-off is given here.

Tests used:
HEK-293T [1] = experiment: (§1) Inhibition of CEN polymerase activity in Influenza A/California/04/2009 (H1N1)pdm09 NP/PA/PB1/PB2 complex transfected in HEK293T cells co-expressing beta-galactosidase at 100 nM preincubated for 3 hrs followed by viral gene transfection and measured after 24 hrs by ONPG substrate based luciferase reporter gene mini-replicon assay relative to control; type: cell-based; details: Influenza A virus (A/California/04/2009(H1N1))
Influenza A virus [2] = experiment: Antiviral activity against Influenza A/California/04/2009 (H1N1)pdm09 infected in MDCK cells assessed as protection against virus-induced cell death by CellTiter-Glo assay; type: functional, organism-based; details: A/California/04/2009(H1N1) pdm09, MDCK
[3] = Cytotoxicity against MDCK cells assessed as reduction in cell viability by CellTiter-Glo assay; type: cell-based, Canis lupus familiaris; details: dog
[4] = Selectivity index, ratio of CC50 for MDCK cells to EC50 for Influenza A/California/04/2009 (H1N1)pdm09 virus infected in MDCK cells; type: toxicity, cell-based; details: dog, read-out: Ratio CC50/EC50
HEK-293T [5] = experiment: as §1, with “25” for “100”; type: cell-based; details: Influenza A virus (A/California/04/2009(H1N1))
[6] = Stability in human liver S9 fraction assessed as parent compound remaining at 1 uM measured after 4 hrs by LC-MS/MS analysis; type: ADME, subcellular; details: read-out: Stability
[7] = Stability in mouse liver S9 fraction assessed as parent compound remaining at 1 uM measured after 4 hrs by LC-MS/MS analysis; type: ADME, subcellular; details: read-out: Stability
[8] = Stability in rat liver S9 fraction assessed as parent compound remaining at 1 uM measured after 4 hrs by LC-MS/MS analysis; type: ADME, subcellular; details: read-out: Stability
[9] = AUClast in CD1 mouse plasma at 10 mg/kg, po administered as single dose by LC-MS/MS analysis; type: ADME, organism-based; design: dose 10 mg/kg, route oral, time 0 - last
[10] = Ratio of Cmax in CD1 mouse lung to plasma at 10 mg/kg, po administered as single dose by LC-MS/MS analysis; type: ADME, organism-based; details: lung and plasma
[11] = Stability in mouse plasma assessed as parent compound remaining at 1 uM measured after 4 hrs by LC-MS/MS analysis; type: ADME, cell-free; details: read-out: Stability
[12] = Cmax in CD1 mouse plasma at 10 mg/kg, po administered as single dose by LC-MS/MS analysis; type: ADME, organism-based; design: dose 10 mg/kg, route oral
[13] = Oral bioavailability in CD1 mouse at 10 mg/kg administered as single dose by LC-MS/MS analysis; type: ADME, organism-based; details: in vivo
[14] = Cmax in CD1 mouse lung at 10 mg/kg, po administered as single dose by LC-MS/MS analysis; type: ADME, organism-based; design: dose 10 mg/kg, route oral
[15] = AUClast in CD1 mouse plasma at 2 mg/kg, iv administered as single dose by LC-MS/MS analysis; type: ADME, organism-based; design: dose 2 mg/kg, route intravenous, time 0 - last
[16] = Stability in rat plasma assessed as parent compound remaining at 1 uM measured after 4 hrs by LC-MS/MS analysis; type: ADME, cell-free; details: read-out: Stability
[17] = Ratio of AUClast in CD1 mouse lung to plasma at 10 mg/kg, po administered as single dose by LC-MS/MS analysis; type: ADME, organism-based; details: lung and plasma, read-out: Ratio AUC
[18] = AUClast in CD1 mouse lung at 10 mg/kg, po administered as single dose by LC-MS/MS analysis; type: ADME, organism-based; details: in vivo
[19] = Stability in human plasma assessed as parent compound remaining at 1 uM measured after 4 hrs by LC-MS/MS analysis; type: ADME, cell-free; details: read-out: Stability
[20] = AUClast in CD1 mouse lung assessed as (12aR)-12-[Bis(4-fluorophenyl)methyl]-7-hydroxy-3,4,12,12a-tetrahydro-1H-[1,4]oxazino[3,4-c]pyrido[2,1-f][1,2,4]triazine-6,8-dione level at 15 mg/kg, po administered as single dose by LC-MS/MS analysis; type: ADME, organism-based; details: in vivo
[21] = Stability in simulated gastric fluid assessed as parent compound remaining at 1 uM measured after 4 hrs at pH 1.2 by LC-MS/MS analysis; type: physicochemical; details: read-out: Stability
[22] = AUClast in CD1 mouse plasma assessed as (12aR)-12-[Bis(4-fluorophenyl)methyl]-7-hydroxy-3,4,12,12a-tetrahydro-1H-[1,4]oxazino[3,4-c]pyrido[2,1-f][1,2,4]triazine-6,8-dione level at 15 mg/kg, po administered as single dose by LC-MS/MS analysis; type: ADME, organism-based; design: dose 15 mg/kg, time 0 - last, route oral; details: in vivo
[23] = Cmax in CD1 mouse lung assessed as (12aR)-12-[Bis(4-fluorophenyl)methyl]-7-hydroxy-3,4,12,12a-tetrahydro-1H-[1,4]oxazino[3,4-c]pyrido[2,1-f][1,2,4]triazine-6,8-dione level at 15 mg/kg, po administered as single dose by LC-MS/MS analysis; type: ADME, organism-based; design: dose 15 mg/kg, route oral; details: in vivo
[24] = Oral bioavailability in CD1 mouse assessed as (12aR)-12-[Bis(4-fluorophenyl)methyl]-7-hydroxy-3,4,12,12a-tetrahydro-1H-[1,4]oxazino[3,4-c]pyrido[2,1-f][1,2,4]triazine-6,8-dione level at 15 mg/kg administered as single dose by LC-MS/MS analysis; type: ADME, organism-based; details: in vivo
[25] = Ratio of AUClast in CD1 mouse lung to plasma assessed as (12aR)-12-[Bis(4-fluorophenyl)methyl]-7-hydroxy-3,4,12,12a-tetrahydro-1H-[1,4]oxazino[3,4-c]pyrido[2,1-f][1,2,4]triazine-6,8-dione level at 15 mg/kg, po administered as single dose by LC-MS/MS analysis; type: ADME, organism-based; details: other tissue
[26] = Cmax in CD1 mouse plasma assessed as (12aR)-12-[Bis(4-fluorophenyl)methyl]-7-hydroxy-3,4,12,12a-tetrahydro-1H-[1,4]oxazino[3,4-c]pyrido[2,1-f][1,2,4]triazine-6,8-dione level at 15 mg/kg, po administered as single dose by LC-MS/MS analysis; type: ADME, organism-based; design: dose 15 mg/kg, route oral; details: in vivo
[27] = Stability in simulated intestinal fluid assessed as parent compound remaining at 1 uM measured after 4 hrs at pH 1.2 by LC-MS/MS analysis; type: physicochemical; details: read-out: Stability
[28] = Ratio of Cmax in CD1 mouse lung to plasma assessed as (12aR)-12-[Bis(4-fluorophenyl)methyl]-7-hydroxy-3,4,12,12a-tetrahydro-1H-[1,4]oxazino[3,4-c]pyrido[2,1-f][1,2,4]triazine-6,8-dione level at 15 mg/kg, po administered as single dose by LC-MS/MS analysis; type: ADME, organism-based; details: other tissue
Influenza A virus [29] = experiment: Antiviral activity against Influenza A virus (A/Denmark/524/2009(H1N1)) pdm09 infected in MDCK cells assessed as protection against virus-induced cell death measured 72 to 96 hrs post-infection by CellTiter-Glo assay; type: functional, organism-based
Influenza B virus [30] = experiment: Antiviral activity against Victoria lineage of Influenza B virus (B/Brisbane/60/2008) infected in MDCK cells assessed as protection against virus-induced cell death measured 72 to 96 hrs post-infection by CellTiter-Glo assay; type: functional, organism-based
Influenza B virus [31] = experiment: Antiviral activity against Yamagata lineage of Influenza B virus (B/Florida/4/2006) infected in MDCK cells assessed as protection against virus-induced cell death measured 72 to 96 hrs post-infection by CellTiter-Glo assay; type: functional, organism-based
Influenza A virus H3N2 = experiment: Antiviral activity against Influenza A virus (A/Fukui/20/2004 (H3N2)) infected in MDCK cells assessed as protection against virus-induced cell death measured 72 to 96 hrs post-infection by CellTiter-Glo assay; type: functional, organism-based

SMILES	inhibition (HEK-293T [1]) [%]	EC50 (Influenza A virus [2]) [nM]	CC50 [3] [µM]	selectivity ratio [4]	inhibition (HEK-293T [5]) [%]	remaining at 4 h, 1 µM [6] [%]	remaining at 4 h, 1 µM [7] [%]	remaining at 4 h, 1 µM [8] [%]	AUC(0-t) [9] [ng·h/mL]	remaining at 4 h, 1 µM [11] [%]	Cmax [12] [ng/mL]	bioavailability [13] [%]	AUC(0-t) [15] [ng·h/mL]	remaining at 4 h, 1 µM [16] [%]	remaining at 4 h, 1 µM [19] [%]	further results
CSc1ccccc1[C@@H](c1ccc(F)c(F)c1)N1[C@@H]2COCCN2C(=O)c2c(O)c(=O)ccn21	13.2	146	9.8	67	3.1	–	–	–	–	–	–	–	–	–	–	–
O=c1ccc2ccc(O)cc2o1 [UMBELLIFERONE]	–	–	–	–	–	0.39	0.83	2.74	–	–	–	–	–	–	–	–
O=C1c2c(O)c(=O)ccn2N([C@H](c2ccccc2)c2ccc(F)c(F)c2)[C@@H]2COCCN12	83.9	15.4	15.9	> 1000	42.2	104	95.2	95.4	303	114	115	2.7	2210	94.4	85.7	Kp [10]: 2.3; Cmax [14]: 264 ng/g; Kp [17]: 1.3; AUClast [18]: 384 ng·h/g
COC(=O)OCOc1c2n(ccc1=O)N(C(c1ccc(F)cc1)c1ccc(F)cc1)[C@@H]1COCCN1C2=O	–	–	–	–	–	–	–	–	–	–	–	–	–	–	–	AUClast [20]: 3302 ng·h/g; remaining at 4 h, 1 µM [21]: 98.4%; AUClast [22]: 3186 ng·h/mL; Cmax [23]: 708 ng/g; F [24]: 39.6%; Ratio AUC [25]: 1; Cmax [26]: 647 ng/mL; remaining at 4 h, 1 µM [27]: 99.7%; Ratio [28]: 1.1
O=C1c2c(O)c(=O)ccn2N(C(c2ccc(F)c(F)c2)c2ccc(F)c(F)c2)[C@@H]2COCCN12	80.9	22.6	13.8	611	50.2	–	–	–	–	–	–	–	–	–	–	–
O=C1c2c(O)c(=O)ccn2N([C@@H](c2ccccc2)c2ccc(F)c(F)c2)[C@@H]2COCCN12	63.2	22.5	12.1	538	28.4	113	92.4	99.6	817	105	332	17.6	927	85.8	90.3	Kp [10]: 1.5; EC50 (Influenza A virus [29]; A/Denmark/524/2009(H1N1) pdm09, MDCK): 3.6 to 12.5 nM; EC50 (Influenza B virus [30]; B/Brisbane/60/2008, MDCK): 5.1 to 28.3 µM; EC50 (Influenza B virus [31]; B/Florida/4/2006, MDCK): 5.1 to 28.3 µM; Cmax [14]: 501 ng/g; EC50 (Influenza A virus H3N2; A/Fukui/20/2004, MDCK): 3.6 to 12.5 nM; Kp [17]: 0.9; AUClast [18]: 735 ng·h/g
O=C(O)CCCc1ccc(N(CCCl)CCCl)cc1 [CHLORAMBUCIL]	–	–	–	–	–	–	–	–	–	–	–	–	–	–	–	remaining at 4 h, 1 µM [21]: 97.2%; remaining at 4 h, 1 µM [27]: 0.04%
CSc1ccccc1[C@H](c1ccc(F)c(F)c1)N1[C@@H]2COCCN2C(=O)c2c(O)c(=O)ccn21	74.1	32.1	16.4	511	22.9	–	–	–	–	–	–	–	–	–	–	–
O=C1c2c(O)c(=O)ccn2N(C(c2ccc(F)cc2)c2ccc(F)cc2)[C@@H]2COCCN12	80	13.4	13.3	993	45.4	97	103	98.3	1820	–	308	22.6	1070	–	–	remaining at 4 h, 1 µM [21]: 87.3%; Kp [10]: 3; Cmax [14]: 935 ng/g; Kp [17]: 2.5; AUClast [18]: 4490 ng·h/g; remaining at 4 h, 1 µM [27]: 96%
O=C1c2c(O)c(=O)ccn2N([C@@H]2c3ccccc3SCc3c2ccc(F)c3F)[C@@H]2COCCN12 [BALOXAVIR]	99.7	0.9	5.6	> 1000	99.6	93.5	87.7	85	79.9	45.4	11.9	3	354	73.9	89.9	Activity (Influenza A virus [29]): Active; Activity (Influenza B virus [30]): Active; Activity (Influenza B virus [31]): Active; Activity (Influenza A virus H3N2): Active
CC(C)[N+](C)(CCOC(=O)C1c2ccccc2Oc2ccccc21)C(C)C [PROPANTHELINE]	–	–	–	–	–	–	–	–	–	1.21	–	–	–	74.3	1.28	–
